Reference: patent US7192906B2, “Substituted pyrazole derivatives, production process thereof, and herbicide compositions containing the derivatives” (SDS Biotech K.K., priority 2001, dated 2007)

Assays:
Assay type in all cases: in vivo
Chenopodium album [1] = test: Test Example 1 upland field foliage treatment; conditions: Table 4, upland field foliage treatment, index 0-5
Method in brief: (§1)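 Scored 0–5 (0: under 10%, 5: 90% or more effect or phytotoxicity) on day 21 after treatment; plants sown in upland soil received a leaf-surface spray 14 days post-sowing of diluted wettable powder delivering 1 kg active ingredient/ha.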

Digitaria adscendens [2] = test: Test Example 1 upland field foliage treatment; conditions: Table 4, upland field foliage treatment, index 0-5
Method in brief: as §1

Setaria viridis [3] = test: Test Example 1 upland field foliage treatment; conditions: Table 4, upland field foliage treatment, index 0-5
Method in brief: as §1

Stellaria media [4] = test: Test Example 1 upland field foliage treatment; conditions: Table 4, upland field foliage treatment, index 0-5
Method in brief: as §1

soybean (Glycine max) [5] = test: Test Example 1 upland field foliage treatment, crop phytotoxicity; conditions: Table 4, upland field foliage treatment, index 0-5
Method in brief: as §1

[6] = test system: wheat (Triticum aestivum); test: as above; conditions: Table 4, upland field foliage treatment, index 0-5
Method in brief: as §1

Chenopodium album [7] = test: Test Example 2 upland soil treatment; conditions: Table 5, upland soil treatment, index 0-5
Method in brief: (§2)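 Pre-emergence soil treatment: seeds sown in upland soil in pots and covered with about 1 cm soil. Next day, a water-diluted wettable powder was sprayed evenly on the soil surface at 1 kg active ingredient per hectare. Weed control or crop injury was scored 0–5 (10% to ≥90% bands) 21 days later.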

Digitaria adscendens [8] = test: Test Example 2 upland soil treatment; conditions: Table 5, upland soil treatment, index 0-5
Method in brief: as §2

Setaria viridis [9] = test: Test Example 2 upland soil treatment; conditions: Table 5, upland soil treatment, index 0-5
Method in brief: as §2

Stellaria media [10] = test: Test Example 2 upland soil treatment; conditions: Table 5, upland soil treatment, index 0-5
Method in brief: as §2

soybean (Glycine max) [11] = test: Test Example 2 upland soil treatment, crop phytotoxicity; conditions: Table 5, upland soil treatment, index 0-5
Method in brief: as §2

[12] = test system: wheat (Triticum aestivum); test: as above; conditions: Table 5, upland soil treatment, index 0-5
Method in brief: as §2

Ammannia multiflora = test: Test Example 3 paddy field treatment; conditions: paddy field treatment, wettable powder, active ingredient 1 kg per hectare, 21st day after the dropping, index 0-5
Method in brief: (§3)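 Scoring used a 0–5 scale of herbicidal effect or phytotoxicity, from <10% to ≥90%, taken 21 days after treatment. Treatment was 1 kg a.i./ha as diluted wettable powder dripped onto 4 cm-deep flooded pots sown with the weeds, 10 days after transplanting two-leaf Koshihikari rice.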

Echinochloa crusgalli = test: Test Example 3 paddy field treatment; conditions: paddy field treatment, wettable powder, active ingredient 1 kg per hectare, 21st day after the dropping, index 0-5
Method in brief: as §3

Monochoria vaginalis = test: Test Example 3 paddy field treatment; conditions: paddy field treatment, wettable powder, active ingredient 1 kg per hectare, 21st day after the dropping, index 0-5
Method in brief: as §3

Scirpus juncoides = test: Test Example 3 paddy field treatment; conditions: paddy field treatment, wettable powder, active ingredient 1 kg per hectare, 21st day after the dropping, index 0-5
Method in brief: as §3

Rice (Oryza sativa) = test: Test Example 3 paddy field treatment, crop phytotoxicity; conditions: paddy field treatment, transplanted rice Koshihikari, wettable powder, active ingredient 1 kg per hectare, 21st day after the dropping, index 0-5
Method in brief: as §3

Structure (SMILES) | Herbicidal activity CA: Chenopodium album (Chenopodium album [1]) | Herbicidal activity DA: Digitaria adscendens (Digitaria adscendens [2]) | Herbicidal activity SV: Setaria viridis (Setaria viridis [3]) | Herbicidal activity SM: Stellaria media (Stellaria media [4]) | Herbicidal activity (phytotoxicity) GM: Soybean (Glycine max) (soybean (Glycine max) [5]) | Herbicidal activity (phytotoxicity) TA: Wheat (Triticum aestivum) [6] | Herbicidal activity CA: Chenopodium album (Chenopodium album [7]) | Herbicidal activity DA: Digitaria adscendens (Digitaria adscendens [8]) | Herbicidal activity SV: Setaria viridis (Setaria viridis [9]) | Herbicidal activity SM: Stellaria media (Stellaria media [10]) | Herbicidal activity (phytotoxicity) GM: Soybean (Glycine max) (soybean (Glycine max) [11]) | Herbicidal activity (phytotoxicity) TA: Wheat (Triticum aestivum) [12] | Herbicidal activity AM (Ammannia multiflora) | Herbicidal activity EC (Echinochloa crusgalli) | Herbicidal activity MV (Monochoria vaginalis) | Herbicidal activity SJ (Scirpus juncoides) | Herbicidal activity OS (phytotoxicity to rice) (Rice (Oryza sativa))
CNC(=O)C(Cn1cc(Cl)c(-c2ccccc2)n1)=NOC [Compound 14] | 5 (herbicidal effect of not less than 90%, or phytotoxicity of 90% or more) | 5 (herbicidal effect of not less than 90%, or phytotoxicity of 90% or more) | 5 (herbicidal effect of not less than 90%, or phytotoxicity of 90% or more) | 5 (herbicidal effect of not less than 90%, or phytotoxicity of 90% or more) | 0 (herbicidal effect of not less than 0% and less than 10%, or phytotoxicity of 0% or more and less than 10%) | 0 (herbicidal effect of not less than 0% and less than 10%, or phytotoxicity of 0% or more and less than 10%) | 5 (herbicidal effect of not less than 90%, or phytotoxicity of 90% or more) | 5 (herbicidal effect of not less than 90%, or phytotoxicity of 90% or more) | 5 (herbicidal effect of not less than 90%, or phytotoxicity of 90% or more) | 5 (herbicidal effect of not less than 90%, or phytotoxicity of 90% or more) | 1 (herbicidal effect of not less than 10% and less than 30%, or phytotoxicity of 10% or more and less than 30%) | 0 (herbicidal effect of not less than 0% and less than 10%, or phytotoxicity of 0% or more and less than 10%) | 5 (herbicidal effect of not less than 90%, or phytotoxicity of 90% or more) | 5 (herbicidal effect of not less than 90%, or phytotoxicity of 90% or more) | 5 (herbicidal effect of not less than 90%, or phytotoxicity of 90% or more) | 5 (herbicidal effect of not less than 90%, or phytotoxicity of 90% or more) | 1 (herbicidal effect of not less than 10% and less than 30%, or phytotoxicity of 10% or more and less than 30%)
CON=C(Cn1cc(C)c(-c2ccc(Cl)cc2)n1)C(N)=O [Compound 17] | 5 (herbicidal effect of not less than 90%, or phytotoxicity of 90% or more) | 5 (herbicidal effect of not less than 90%, or phytotoxicity of 90% or more) | 5 (herbicidal effect of not less than 90%, or phytotoxicity of 90% or more) | 5 (herbicidal effect of not less than 90%, or phytotoxicity of 90% or more) | 0 (herbicidal effect of not less than 0% and less than 10%, or phytotoxicity of 0% or more and less than 10%) | 0 (herbicidal effect of not less than 0% and less than 10%, or phytotoxicity of 0% or more and less than 10%) | 4 (herbicidal effect of not less than 70% and less than 90%, or phytotoxicity of 70% or more and less than 90%) | 4 (herbicidal effect of not less than 70% and less than 90%, or phytotoxicity of 70% or more and less than 90%) | 4 (herbicidal effect of not less than 70% and less than 90%, or phytotoxicity of 70% or more and less than 90%) | 4 (herbicidal effect of not less than 70% and less than 90%, or phytotoxicity of 70% or more and less than 90%) | 0 (herbicidal effect of not less than 0% and less than 10%, or phytotoxicity of 0% or more and less than 10%) | 0 (herbicidal effect of not less than 0% and less than 10%, or phytotoxicity of 0% or more and less than 10%) | 5 (herbicidal effect of not less than 90%, or phytotoxicity of 90% or more) | 4 (herbicidal effect of not less than 70% and less than 90%, or phytotoxicity of 70% or more and less than 90%) | 5 (herbicidal effect of not less than 90%, or phytotoxicity of 90% or more) | 4 (herbicidal effect of not less than 70% and less than 90%, or phytotoxicity of 70% or more and less than 90%) | 0 (herbicidal effect of not less than 0% and less than 10%, or phytotoxicity of 0% or more and less than 10%)
CNC(=O)C(Cn1cc(C)c(-c2ccccc2)n1)=NOC [Compound 18] | 5 (herbicidal effect of not less than 90%, or phytotoxicity of 90% or more) | 5 (herbicidal effect of not less than 90%, or phytotoxicity of 90% or more) | 5 (herbicidal effect of not less than 90%, or phytotoxicity of 90% or more) | 5 (herbicidal effect of not less than 90%, or phytotoxicity of 90% or more) | 0 (herbicidal effect of not less than 0% and less than 10%, or phytotoxicity of 0% or more and less than 10%) | 0 (herbicidal effect of not less than 0% and less than 10%, or phytotoxicity of 0% or more and less than 10%) | 5 (herbicidal effect of not less than 90%, or phytotoxicity of 90% or more) | 5 (herbicidal effect of not less than 90%, or phytotoxicity of 90% or more) | 5 (herbicidal effect of not less than 90%, or phytotoxicity of 90% or more) | 5 (herbicidal effect of not less than 90%, or phytotoxicity of 90% or more) | 0 (herbicidal effect of not less than 0% and less than 10%, or phytotoxicity of 0% or more and less than 10%) | 0 (herbicidal effect of not less than 0% and less than 10%, or phytotoxicity of 0% or more and less than 10%) | 5 (herbicidal effect of not less than 90%, or phytotoxicity of 90% or more) | 5 (herbicidal effect of not less than 90%, or phytotoxicity of 90% or more) | 5 (herbicidal effect of not less than 90%, or phytotoxicity of 90% or more) | 5 (herbicidal effect of not less than 90%, or phytotoxicity of 90% or more) | 0 (herbicidal effect of not less than 0% and less than 10%, or phytotoxicity of 0% or more and less than 10%)
CCNC(=O)C(Cn1cc(C)c(-c2ccccc2)n1)=NOC [Compound 19] | 5 (herbicidal effect of not less than 90%, or phytotoxicity of 90% or more) | 5 (herbicidal effect of not less than 90%, or phytotoxicity of 90% or more) | 5 (herbicidal effect of not less than 90%, or phytotoxicity of 90% or more) | 5 (herbicidal effect of not less than 90%, or phytotoxicity of 90% or more) | 0 (herbicidal effect of not less than 0% and less than 10%, or phytotoxicity of 0% or more and less than 10%) | 0 (herbicidal effect of not less than 0% and less than 10%, or phytotoxicity of 0% or more and less than 10%) | 5 (herbicidal effect of not less than 90%, or phytotoxicity of 90% or more) | 5 (herbicidal effect of not less than 90%, or phytotoxicity of 90% or more) | 5 (herbicidal effect of not less than 90%, or phytotoxicity of 90% or more) | 5 (herbicidal effect of not less than 90%, or phytotoxicity of 90% or more) | 0 (herbicidal effect of not less than 0% and less than 10%, or phytotoxicity of 0% or more and less than 10%) | 0 (herbicidal effect of not less than 0% and less than 10%, or phytotoxicity of 0% or more and less than 10%) | 5 (herbicidal effect of not less than 90%, or phytotoxicity of 90% or more) | 5 (herbicidal effect of not less than 90%, or phytotoxicity of 90% or more) | 5 (herbicidal effect of not less than 90%, or phytotoxicity of 90% or more) | 5 (herbicidal effect of not less than 90%, or phytotoxicity of 90% or more) | 0 (herbicidal effect of not less than 0% and less than 10%, or phytotoxicity of 0% or more and less than 10%)
